# Measurements as given in US11672786B2, “Methods of treating diseases associated with repeat instability” (The Hospital for Sick Children, priority 2016, dated 2023).
# Assays:
# [1] = tested on: CASK, HTT (normal allele), Mfd15 and TBP loci in HD fibroblasts; test: repeat-tract lengths of non-expanded loci in HD fibroblasts; assay type: cell-based, human
# Excerpt: Scale bar represents 20 μm. […] The cell viability was estimated with WST-1 assays. Values represent the means of three independent measures±SD. […] Error bars indicate the SD of triplicate experiments. […] The dashed line indicates the peak CAG size. Allele lengths are grouped in bins spanning 10 repeats. More than 230 alleles were sized per group.
# FIG. 12 are representative data showing ultra-sensitive small-pool PCR for the non-expanded CAG/CTG repeat length of CASK in HD primary fibroblast cells (Panel A of FIG. 12) and HT1080-(CAG)850 cells (Panel B of FIG. 12). […] Repeat lengths were analyzed by Agilent BioAnalyzer.
# Genomic DNA was extracted from HT1080-(CAG)850 clones and HD primary fibroblasts using the Gentra Puregene Cell Kit (Qiagen, Valencia, Calif.). […] At least 50 alleles were analyzed for each of the three experiments (more than 150 alleles for a total study). […] For the histograms in FIGS. 4D, 4E, 10, 11, 5B, 5D, 5E, 14 and 15B, the Y-axis, “% of repeat population” was calculated by determining the proportion of >50 individual small-pool PCR reactions across the CAG repeat tract, that harbored a certain size of repeat product with a certain length. […] Length distributions were determined as follows: Small-pool PCR followed by Southern blot for analysis of CAG/CTG repeat length. […]
# [2] = tested on: Mapkap1 and Fgd4 loci in striatum from R6/2 mouse; test: repeat-tract lengths of non-expanded loci in R6/2 striatum; assay type: in vivo; conditions: four injections, both sides of striatum
# [3] = tested on: transgene transcript in the CAG-direction, HT1080-(CAG)850 cells; test: transgene mRNA quantification by quantitative RT-PCR; assay type: cell-based, human; conditions: NA 50 μM, 72 hr
# Excerpt: FIG. 5 are results from experiments showing that NA induces CAG contractions in HT1080-(CAG)850 cells, independent of proliferation, dependent upon rCAG transcription. […] Panel B of FIG. 5 are histograms showing repeat length distributions in HT1080-(CAG)850 cells. Frequency distribution of unstable alleles is shown by gray bars. Frequency of stable alleles is shown by black bars. To facilitate comparisons, a dashed line indicates the unchanged CAG size. Allele lengths are grouped in bins spanning 50 repeats. […] More than 50 alleles were sized for each group. P-value was calculated by chi-square test (Table 2). […] P-value was calculated by Student's t-test. […] Quantitative reverse transcription (RT)-PCR was performed using TaqMan Gene Expression assays. […]
# RNA was harvested from the HT1080-(CAG)850 cells at 72 hr after adding or not adding NA using the RNeasy Plus Micro Kit (Qiagen). Total RNA was primed with random hexamers and reverse transcribed with Superscript III (Life Technologies, Carlsbad, Calif.), followed by treatment with RNase H. Quantitative reverse transcription (RT)-PCR was performed using TaqMan Gene Expression assays or PrimeTime qPCR assays on an ABI PRISM 7900HT Sequence Detection System (Life Technologies) and the primer sequences shown in Table 1. […] The results were statistically analyzed using paired t-tests. […]
# [4] = tested on: r(CAG)9; conditions: r(CAG)9 immobilization 524 RU; cited from earlier work
substance,measurement,setting,value
naphthyridine-azaquinolone,"length variation at CASK, HTT (normal allele), and Mfd15 loci",[1]; 40 days incubation with or without NA,Length variation was not observed
same,length distribution of non-mutant TBP repeats (38 and 34 repeats),"[1]; HD patient cells, 40 days",did not change the length distribution of the TBP repeats
same,length variation at Mapkap1 and Fgd4 loci,[2],Length variation was not observed
same,effect on RNA transcript levels of transgene,[3],did not affect transcription of the CAG-repeats containing transcript
same,changes in the SPR intensity on NA binding,[4],8 RU
